In patent publication US20230241257A1, “BIOTIN-MODIFIED DIMER AND USE THEREOF” (THE UNIVERSITY OF TOKYO, priority 2020, published 2023):

Tests used:
[1] = tested on: human stomach cancer cells (MKN-45); assay: Experiment 2: pharmacokinetics of Cupid-scFv antibody (24 h before)+^211At-psyche-B in MKN-45 cancer-bearing mouse models; format: in vivo, mice (BALB/cSlc nu/nu)
Method: The present experiment used highly CEA-expressing human stomach cancer cells (MKN-45). 9-week-old male immunodeficient mice (BALB/cSlc nu/nu) were used. MKN-45 cells (1×10^7/0.1 ml) were transplanted into the mice's subcutis on the right shoulder dorsal side to produce MKN-45 cancer-bearing mouse models. The mice were divided into four groups when the tumor volume became a predetermined size (on Day 13 after the transplantation). A Cupid-scFv antibody was administered in 100 μmol/0.1 ml via the caudal vein of each mouse. Twenty-four hours after administration of the Cupid-scFv antibody, ^211At-psyche-B (about 0.25 MBq/100 ml) was administered via the caudal vein of the mice. One minute, 1 hour, 6 hours, and 24 hours after administration of the ^211At-psyche-B, the mice were euthanized by collecting whole blood from the heart of each mouse under isoflurane anesthesia, and tumor tissues and normal tissues/organs were then excised. Normal tissues/organs: skin (lower right limb), muscle (right gastrocnemius muscle), heart, lung, spleen, pancreas, white fat (upper portion of right side testis), testis (right side), stomach (without contents), small intestine, large intestine, liver, brown fat, submandibular gland, thyroid gland (together with trachea), bone (right femur), cerebrum, eyeballs (both sides), bladder, and urine; the remaining residues were divided into three equal parts, and the three equal parts were defined to be residue-1, residue-2, and residue-3. After that, the weights of blood, plasma, urine, tumor, and normal tissues/organs were measured, and the radioactivity thereof was then measured using a γ counter. The amounts of the ^211At-psyche-B (radioactivity) accumulated in the blood, plasma, urine, tumor, and normal tissues/organs were calculated. That is to say, the rates (% ID/g) of the ^211At-psyche-B accumulated per unit weight (g) of the blood, plasma, urine, tumor, and normal tissues/organs, in the administered ^211At-psyche-B, were shown. Regarding accumulation of the ^211At-psyche-B in the thyroid gland, since the weight of the thyroid gland could not be precisely measured, it was shown that the rate (% ID) of the ^211At-psyche-B accumulated in the thyroid gland in the administered ^211At-psyche-B.

[2] = tested on: human stomach cancer cells (MKN-45); assay: Experiment 7: pharmacokinetics of ^211At-psyche-BR in the absence of Cupid-scFv antibody in MKN-45 cancer-bearing mouse models; format: in vivo, mice (BALB/cSlc nu/nu); conditions: no Cupid-scFv antibody
Method: The present experiment used human stomach cancer cells (MKN-45) expressing carcinoembryonic antigen (CEA). 9-week-old male immunodeficient mice (BALB/cSlc nu/nu) were used. MKN-45 cells (1×10^7/0.1 ml) were transplanted into the mice's subcutis on the right shoulder dorsal side to produce cancer-bearing mouse models. The mice were divided into four groups at the time the tumor volume became a predetermined size (on Day 19 after the transplantation), and ^211At-psyche-BR was administered via the caudal vein of each mouse. One minute, 1 hour, 6 hours, and 24 hours after administration of the ^211At-psyche-BR, the mice were euthanized by collecting whole blood from the heart of each mouse under isoflurane anesthesia, and tumor tissues and normal tissues/organs were then excised. Normal tissues/organs: muscle (right gastrocnemius muscle), heart, lung, spleen, pancreas, testis (both sides), stomach, stomach contents, small intestine (not including contents), large intestine (not including contents), liver, kidney, submandibular gland, thyroid gland (together with trachea), bone (right femur), and cerebrum. After that, the weights of blood, plasma, tumor, and normal tissues/organs were measured, and the radioactivity thereof was then measured using a γ counter. The amounts of the ^211At-psyche-BR (radioactivity) accumulated in the blood, plasma, urine, tumor, and normal tissues/organs were calculated. That is to say, the rates (% ID/g) of the ^211At-psyche-BR accumulated per unit weight (g) of the blood, plasma, urine, tumor, and normal tissues/organs, in the administered ^211At-psyche-BR were shown. Regarding accumulation of the ^211At-psyche-BR in the thyroid gland, since the weight of the thyroid gland could not be precisely measured, it was shown that the rate (% ID) of the ^211At-psyche-BR accumulated in the thyroid gland in the administered ^211At-psyche-BR.

N=C1N[C@H]2[C@H](CS[C@H]2CCCCC(=O)NCCCCCC(=O)Nc2cc(NC(=O)CCCCCNC(=O)CCCC[C@@H]3SC[C@@H]4NC(=N)N[C@@H]43)cc(C(=O)NCCOCCOCCNC(=O)c3cccc([211At])c3)c2)N1 [^211At-psyche-B]
Accumulation in the kidney ([1]; after 1 minute): 29.3±1.5 % ID/g
Accumulation in the liver ([1]; after 1 minute): 17.4±2.3 % ID/g
Accumulation in the lung ([1]; after 1 minute): 15.9±1.7 % ID/g
Accumulation in the spleen ([1]; after 1 minute): 4.9±1.7 % ID/g
Accumulation in the tumor ([1]; after 1 minute): 0.6±0.1 % ID/g
Clearance from the blood ([1]; after 1 minute): 46.4±1.4 % ID/g
tumor-to-blood ratio ([1]; after 1 minute): 0.01±0.00
tumor-to-muscle ratio ([1]; after 1 minute): 1.5±0.3
Accumulation in the kidney ([1]; after 1 hour): 14.2±1.3 % ID/g
Accumulation in the liver ([1]; after 1 hour): 13.6±1.4 % ID/g
Accumulation in the lung ([1]; after 1 hour): 14.7±3.6 % ID/g
Accumulation in the spleen ([1]; after 1 hour): 7.9±1.1 % ID/g
Accumulation in the tumor ([1]; after 1 hour): 3.2±0.4 % ID/g
Clearance from the blood ([1]; after 1 hour): 40.6±3.2 % ID/g
tumor-to-blood ratio ([1]; after 1 hour): 0.08±0.01
tumor-to-muscle ratio ([1]; after 1 hour): 5.2±1.0
Accumulation in the kidney ([1]; after 6 hours): 9.8±0.7 % ID/g
Accumulation in the liver ([1]; after 6 hours): 16.0±1.4 % ID/g
Accumulation in the lung ([1]; after 6 hours): 11.2±0.9 % ID/g
Accumulation in the spleen ([1]; after 6 hours): 10.1±0.3 % ID/g
Accumulation in the tumor ([1]; after 6 hours): 11.8±1.5 % ID/g
Clearance from the blood ([1]; after 6 hours): 29.4±0.9 % ID/g
tumor-to-blood ratio ([1]; after 6 hours): 0.40±0.05
tumor-to-muscle ratio ([1]; after 6 hours): 14.0±0.9
Accumulation in the thyroid gland ([1]; after 24 h): 0.16±0.06 % ID
Accumulation in the kidney ([1]; after 24 hours): 4.7±0.8%
Accumulation in the liver ([1]; after 24 hours): 15.5±0.1%
Accumulation in the lung ([1]; after 24 hours): 4.2±0.5%
Accumulation in the spleen ([1]; after 24 hours): 9.6±2.4%
Accumulation in the tumor ([1]; after 24 hours): 16.3±4.1%
Clearance from the blood ([1]; after 24 hours): 6.2±1.3 % ID/g
administered amount excreted (blood) ([1]; after 24 hours): 94%
tumor-to-blood ratio ([1]; after 24 hours): 2.63±0.10
tumor-to-muscle ratio ([1]; after 24 hours): 26.5±4.6
Accumulation in the blood ([2]; after 1 minute): 13.5±1.1 % ID/g
Accumulation in the kidney ([2]; after 1 minute): 72.7±5.6 % ID/g
Accumulation in the liver ([2]; after 1 minute): 51.1±5.9 % ID/g
Accumulation in the tumor ([2]; after 1 minute): 0.3±0.04 % ID/g
Accumulation in the blood ([2]; after 1 hour): 2.1±0.2 % ID/g
Accumulation in the kidney ([2]; after 1 hour): 77.9±2.1 % ID/g
Accumulation in the liver ([2]; after 1 hour): 30.8±3.3 % ID/g
Accumulation in the tumor ([2]; after 1 hour): 0.4±0.02 % ID/g
Accumulation in the blood ([2]; after 6 hours): 1.0±0.2 % ID/g
Accumulation in the kidney ([2]; after 6 hours): 32.1±8.2 % ID/g
Accumulation in the liver ([2]; after 6 hours): 19.6±0.5 % ID/g
Accumulation in the tumor ([2]; after 6 hours): 0.8±0.09 % ID/g
Accumulation in the thyroid gland ([2]; after 6 hours of administration): 0.29±0.05 % ID
Accumulation in the blood ([2]; after 24 hours): 0.2±0.04 % ID/g
Accumulation in the kidney ([2]; after 24 hours): 3.0±0.1%
Accumulation in the liver ([2]; after 24 hours): 5.0±0.2%
Accumulation in the tumor ([2]; after 24 hours): 0.4±0.02%
